Experimental data published in patent US20220274979A1 (Bayer Pharma Aktiengesellschaft, priority 2018, published 2022).

molecular target: T1, Epidermal Growth Factor Receptor (EGFR) (Homo sapiens, UniProt P00533); experiment: EGFR kinase assay (TR-FRET); type: biochemical; conditions: 10 μM ATP; read-out: EGFR kinase inhibition IC50
T1 construct: purchased Sigma-Aldrich E3641
Outline: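 EGFR purified from A431 cells pre-incubated 15 min with compound, then reacted 20 min at 22 °C with 10 μM ATP and 1 μM biotinylated peptide (final) in HEPES pH 7.0 with Mg2+/Mn2+. Phosphopeptide detected by TR-FRET (Tb anti-phosphotyrosine/streptavidin-XL665), 665/620 nm emission ratio.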

T1 sequence (P00533 25-1210): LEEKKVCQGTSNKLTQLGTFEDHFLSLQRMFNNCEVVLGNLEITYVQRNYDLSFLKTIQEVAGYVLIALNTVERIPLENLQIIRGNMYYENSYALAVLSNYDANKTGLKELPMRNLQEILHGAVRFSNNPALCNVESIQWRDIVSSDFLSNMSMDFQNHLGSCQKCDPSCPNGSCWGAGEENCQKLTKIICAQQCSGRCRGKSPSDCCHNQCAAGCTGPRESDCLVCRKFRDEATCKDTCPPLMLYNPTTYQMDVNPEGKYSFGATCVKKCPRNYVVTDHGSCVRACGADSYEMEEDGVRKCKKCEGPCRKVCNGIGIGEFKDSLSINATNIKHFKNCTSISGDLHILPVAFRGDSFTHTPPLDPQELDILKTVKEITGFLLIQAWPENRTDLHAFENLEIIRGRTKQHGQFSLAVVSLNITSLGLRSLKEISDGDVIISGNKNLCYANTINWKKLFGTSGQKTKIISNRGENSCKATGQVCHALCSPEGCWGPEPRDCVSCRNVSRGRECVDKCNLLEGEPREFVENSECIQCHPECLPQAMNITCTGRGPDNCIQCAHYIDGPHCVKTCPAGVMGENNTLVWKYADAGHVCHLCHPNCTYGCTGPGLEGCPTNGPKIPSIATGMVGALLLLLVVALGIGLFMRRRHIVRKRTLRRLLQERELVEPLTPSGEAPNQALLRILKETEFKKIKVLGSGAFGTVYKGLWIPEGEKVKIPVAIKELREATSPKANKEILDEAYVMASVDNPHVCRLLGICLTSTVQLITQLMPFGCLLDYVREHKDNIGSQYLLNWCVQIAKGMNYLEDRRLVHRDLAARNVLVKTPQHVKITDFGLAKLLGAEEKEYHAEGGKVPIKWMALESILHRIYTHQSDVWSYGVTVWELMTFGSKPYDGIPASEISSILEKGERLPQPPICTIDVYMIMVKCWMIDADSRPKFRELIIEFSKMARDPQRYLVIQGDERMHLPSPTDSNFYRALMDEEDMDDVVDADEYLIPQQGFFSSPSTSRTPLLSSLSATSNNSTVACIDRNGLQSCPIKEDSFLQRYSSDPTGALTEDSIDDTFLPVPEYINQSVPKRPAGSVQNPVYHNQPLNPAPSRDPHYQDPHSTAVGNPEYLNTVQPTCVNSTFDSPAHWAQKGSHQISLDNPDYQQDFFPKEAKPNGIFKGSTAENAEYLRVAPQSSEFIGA

SMILES	IC50
Cc1nc(NC(C)c2ccc(-c3ccccc3CN(C)C)s2)c2cc(OCCCN(C)C)ncc2n1 (centres unmarked) [Example 72, N-[1-(5-{2-[(dimethylamino)methyl]phenyl}thiophen-2-yl)ethyl]-6-[3-(dimethylamino)propoxy]-2-methylpyrido[3,4-d]pyrimidin-4-amine]	> 20 µM
COc1cc2c(NC(C)c3cccc4nn(C)cc34)nc(C)nc2cn1 (centres unmarked) [Example 17, 6-methoxy-2-methyl-N-[1-(2-methyl-2H-indazol-4-yl)ethyl]pyrido[3,4-d]pyrimidin-4-amine]	> 20 µM
COc1cc2c(NC(C)c3ccc(-c4ccccc4CN(C)C)s3)nc(C)nc2cn1 (centres unmarked) [Example 64, N-[1-(5-{2-[(dimethylamino)methyl]phenyl}thiophen-2-yl)ethyl]-6-methoxy-2-methylpyrido[3,4-d]pyrimidin-4-amine]	> 20 µM
Cc1nc(N[C@H](C)c2cccc(Br)c2)c2cc(N3CCNC(=O)C3)ncc2n1 [Example 45]	> 20 µM
COc1cc2c(N[C@H](C)c3ccc(F)c(Cl)c3)nc(C)nc2cn1 [Example 8]	> 20 µM
Cc1nc(NC(C)c2ccc(-c3ccccc3CN(C)C)s2)c2cc(OCC3CC3)ncc2n1 (centres unmarked) [Example 73, 6-(cyclopropylmethoxy)-N-[1-(5-{2-[(dimethylamino)methyl]phenyl}thiophen-2-yl)ethyl]-2-methylpyrido[3,4-d]pyrimidin-4-amine]	> 20 µM
Cc1nc(NC(C)c2ccc(-c3ccccc3CN(C)C)s2)c2cc(OC3CCS(=N)(=O)CC3)ncc2n1 (centres unmarked) [Example 77, N-[1-(5-{2-[(dimethylamino)methyl]phenyl}-2-thienyl)ethyl]-6-[(1-imino-1-oxidohexahydro-1lambda4-thiopyran-4-yl)oxy]-2-methylpyrido[3,4-d]pyrimidin-4-amine]	> 20 µM
Cc1nc(NC(C)c2ccc(-c3ccccc3CN(C)C)s2)c2cc(N3CCC3)ncc2n1 (centres unmarked) [Example 71, 6-(azetidin-1-yl)-N-[1-(5-{2-[(dimethylamino)methyl]phenyl}thiophen-2-yl)ethyl]-2-methylpyrido[3,4-d]pyrimidin-4-amine]	> 20 µM
Cc1nc(NC(C)c2ccc(-c3ccccc3CN(C)C)s2)c2cc(Oc3cccc(C4=NCCN4C)c3)ncc2n1 (centres unmarked) [Example 58, N-[1-(5-{2-[(dimethylamino)methyl]phenyl}thiophen-2-yl)ethyl]-2-methyl-6-[3-(1-methyl-4,5-dihydro-1H-imidazol-2-yl)phenoxy]pyrido[3,4-d]pyrimidin-4-amine]	> 20 µM
Cc1nc(NC(C)c2ccc(-c3ccccc3CN(C)C)s2)c2cc(C3CCN(C)C3=O)ncc2n1 (mixture of isomers) [Example 69, 3-(4-{[1-(5-{2-[(dimethylamino)methyl]phenyl}thiophen-2-yl)ethyl]amino}-2-methylpyrido[3,4-d]pyrimidin-6-yl)-1-methylpyrrolidin-2-one]	> 20 µM
Cc1nc(N[C@H](C)c2cccc(Br)c2)c2cc(OCCCN(C)C)ncc2n1 [Example 70, N-[(1R)-1-(3-bromophenyl)ethyl]-6-[3-(dimethylamino)propoxy]-2-methylpyrido[3,4-d]pyrimidin-4-amine]	> 20 µM
Cc1nc(N[C@H](C)c2cccc(Br)c2)c2nc(OCc3ccccc3)ccc2n1 [Example 33, 6-(benzyloxy)-N-[(1R)-1-(3-bromophenyl)ethyl]-2-methylpyrido[3,2-d]pyrimidin-4-amine]	> 20 µM
Cc1nc(N[C@H](C)c2cccc(Br)c2)c2cc(NC3CCOCC3)ncc2n1 [Example 46]	> 20 µM
COc1ncc2nc(C)nc(N[C@H](C)c3cccc(Br)c3)c2n1 [Example 24, N-[(1R)-1-(3-bromophenyl)ethyl]-6-methoxy-2-methylpyrimido[5,4-d]pyrimidin-4-amine]	> 20 µM
Cc1nc(NC(C)c2ccc(-c3ccccc3CN(C)C)s2)c2cc(N3CC(N)C3)ncc2n1 (centres unmarked) [Example 93, 6-(3-aminoazetidin-1-yl)-N-[1-(5-{2-[(dimethylamino)methyl]phenyl}thiophen-2-yl)ethyl]-2-methylpyrido[3,4-d]pyrimidin-4-amine]	> 20 µM
CC(=O)NCCNc1cc2c(NC(C)c3ccc(-c4ccccc4CN(C)C)s3)nc(C)nc2cn1 (centres unmarked) [Example 51, N-{2-[(4-{[1-(5-{2-[(dimethylamino)methyl]phenyl}thiophen-2-yl)ethyl]amino}-2-methylpyrido[3,4-d]pyrimidin-6-yl)amino]ethyl}acetamide]	> 20 µM

SMILES	IC50
Cc1nc(NC(C)c2ccc(-c3ccccc3CN(C)C)s2)c2cc(C3(O)CCN(C)C3=O)ncc2n1 (mixture of isomers) [Example 85, 3-(4-{[1-(5-{2-[(dimethylamino)methyl]phenyl}thiophen-2-yl)ethyl]amino}-2-methylpyrido[3,4-d]pyrimidin-6-yl)-3-hydroxy-1-methylpyrrolidin-2-one]	> 20 µM
Cc1nc(NC(C)c2ccc(-c3ccccc3CN(C)C)s2)c2cc(NC3CCOCC3)ncc2n1 (centres unmarked) [Example 53, N4-[1-(5-{2-[(dimethylamino)methyl]phenyl}-2-thienyl)ethyl]-2-methyl-N6-(tetrahydro-2H-pyran-4-yl)pyrido[3,4-d]pyrimidine-4,6-diamine]	> 20 µM
Cc1nc(NC(C)c2ccc(-c3ccccc3CN(C)C)s2)c2cc(NCCn3cccn3)ncc2n1 (centres unmarked) [Example 54, N4-[1-(5-{2-[(dimethylamino)methyl]phenyl}-2-thienyl)ethyl]-2-methyl-N6-[2-(1H-pyrazol-1-yl)ethyl]pyrido[3,4-d]pyrimidine-4,6-diamine]	> 20 µM
Cc1nc(N[C@H](C)c2cccc(Br)c2)c2nc(N3CCOCC3)ccc2n1 [Example 27, N-[(1R)-1-(3-bromophenyl)ethyl]-2-methyl-6-(morpholin-4-yl)pyrido[3,2-d]pyrimidin-4-amine]	> 20 µM
Cc1nc(N[C@H](C)c2cccc(Br)c2)c2cc(OCC3CC3)ncc2n1 [Example 75, N-[(1R)-1-(3-bromophenyl)ethyl]-6-(cyclopropylmethoxy)-2-methylpyrido[3,4-d]pyrimidin-4-amine]	> 20 µM
Cc1nc(N[C@H](C)c2cccc(Br)c2)c2cc(NCCn3ccnc3)ncc2n1 [Example 84, N4-[(1R)-1-(3-bromophenyl)ethyl]-N6-[2-(1H-imidazol-1-yl)ethyl]-2-methylpyrido[3,4-d]pyrimidine-4,6-diamine]	> 20 µM
COc1ccc2nc(C)nc(N[C@H](C)c3cccc(Br)c3)c2n1 [Example 28, N-[(1R)-1-(3-bromophenyl)ethyl]-6-methoxy-2-methylpyrido[3,2-d]pyrimidin-4-amine]	> 20 µM
CCOc1cc2c(N[C@H](C)c3cccc(Cl)c3)nc(C)nc2cn1 [Example 6]	> 20 µM
Cc1nc(NC(C)c2ccc(-c3ccccc3CN(C)C)s2)c2cc(N3CC(NS(=O)(=O)Cc4ccccc4)C3)ncc2n1 (centres unmarked) [Example 95, N-[1-(4-{[1-(5-{2-[(dimethylamino)methyl]phenyl}thiophen-2-yl)ethyl]amino}-2-methylpyrido[3,4-d]pyrimidin-6-yl)azetidin-3-yl]-1-phenylmethanesulfonamide]	> 20 µM
Cc1nc(NC(C)c2ccc(-c3ccccc3CN(C)C)s2)c2cc(NCCN3CCOCC3)ncc2n1 (centres unmarked) [Example 48]	> 20 µM
CCOc1ncc2nc(C)nc(N[C@H](C)c3cccc(Br)c3)c2n1 [Example 23, N-[(1R)-1-(3-bromophenyl)ethyl]-6-ethoxy-2-methylpyrimido[5,4-d]pyrimidin-4-amine]	> 20 µM
CCOc1ccc2nc(C)nc(N[C@H](C)c3cccc(Br)c3)c2n1 [Example 29, N-[(1R)-1-(3-bromophenyl)ethyl]-6-ethoxy-2-methylpyrido[3,2-d]pyrimidin-4-amine]	> 20 µM
COc1cc2c(NC(C)c3cccc4sccc34)nc(C)nc2cn1 (centres unmarked) [Example 4, N-[1-(1-benzothiophen-4-yl)ethyl]-6-methoxy-2-methylpyrido[3,4-d]pyrimidin-4-amine]	> 20 µM
Cc1nc(NC(C)c2ccc(Br)s2)c2cc(F)ncc2n1 (centres unmarked) [Example 35]	> 20 µM
CSc1cc2c(NC(C)c3ccc(-c4ccccc4CN(C)C)s3)nc(C)nc2cn1 (centres unmarked) [Example 59, N-[1-(5-{2-[(dimethylamino)methyl]phenyl}thiophen-2-yl)ethyl]-2-methyl-6-(methylsulfanyl)pyrido[3,4-d]pyrimidin-4-amine]	> 20 µM
Cc1nc(N[C@H](C)c2cccc(Br)c2)c2cc(NCCn3cccn3)ncc2n1 [Example 49, N4-[(1R)-1-(3-bromophenl)pethyl]-2-methyl-N6-[2-(1H-pyrazol-1-yl)ethyl]pyrido[3,4-d]pyrimidine-4,6-diamine]	> 20 µM
